Measurements taken from US20210260142A1, “COMPOSITIONS BASED ON DIETARY FIBERS AND ESSENTIAL OILS” (Ralco Nutrition, Inc., priority 2020, published 2021).

Key:
Eimeria tenella = assay: Anticoccidial efficacy battery-cage study, E. tenella lesions and oocysts
Eimeria maxima = assay: Anticoccidial efficacy battery-cage study, E. maxima lesions and oocysts
Eimeria acervulina = assay: Anticoccidial efficacy battery-cage study, E. acervulina lesions and oocysts
[1] = 3-Oil screening trial, 35 days, cocci stress; type: in vivo, Cobb 500 cockerels; conditions: product in feed
From the text: 640 1-day-old Cobb 500 cockerels were wing banded, weighed and randomly assigned to pens on the day of delivery. Each pen was 3 feet wide by 2 feet long by 2 feet tall holding 10 birds each; density was 0.6 sq. ft. per bird. The pens were contained within two battery cages in a single barn, each with battery cage having 4 levels and 8 pens per level for a total of 32 pens per battery. The experimental period was 35 days divided into three (3) feeding stages, starter, grower and finisher. Bird weight, average daily gain (ADG), average daily feed intake (ADFI), feed to gain (FG) and Coccidiosis oocyte counts were determined at each period. This study was performed with a large number of treatments in order to screen a number of possible treatments for further future investigations. […]

[2] = Day 20, Johnson and Reid 1970 scoring, five birds per cage

SMILES | Lesion Scores Eimeria tenella (Eimeria tenella; [2]) [b] | Oocysts/Gram Eimeria tenella (Eimeria tenella; feces Day 19 to Day 20) [bc Oocysts/Gram] | Lesion Scores Eimeria maxima (Eimeria maxima; [2]) [days] | Oocysts/Gram Eimeria maxima (Eimeria maxima; feces Day 19 to Day 20) [bc Oocysts/Gram] | Lesion Scores Eimeria acervulina (Eimeria acervulina; [2]) [days] | Oocysts/Gram Eimeria acervulina (Eimeria acervulina; feces Day 19 to Day 20) [cd Oocysts/Gram] | Average bird weights at thirty-five (35) days [1] [grams]
CC[C@@H](C(=O)[C@@H](C)[C@@H](O)[C@H](C)[C@@H]1O[C@@H]([C@@H](CC)C(=O)O)CC[C@@H]1C)[C@H]1O[C@]2(C=C[C@@H](O)[C@]3(CC[C@@](C)([C@H]4CC[C@](O)(CC)[C@H](C)O4)O3)O2)[C@H](C)C[C@@H]1C [Salinomycin] | 0.9 | 1843 | 0.7 | 212 | 0.8 | 18403 | 
O=CC=Cc1ccccc1 [cinnamaldehyde] |  |  |  |  |  |  | 2180.2
